Data on four compounds can be found in patent publication EP0013742A1, “Substituted sulfonic acid anilides, their preparation and use” (BASF Aktiengesellschaft, priority 1979, dated 1980).

One test concerns Rasen. Nature of the test: Effect on grass/lawn, vegetation test in Mitscherlich pots (Beispiel B). The format is in vivo. The settings on record: for 1. Schnitt Pflanzenhöhe relativ / 1. Schnitt Pflanzenhöhe cm: 20 days after treatment; for 1. Schnitt Pflanzenhöhe relativ / 2. Schnitt Pflanzenhöhe relativ: untreated control = 100; for 2. Schnitt Pflanzenhöhe cm: regrowth over 4 weeks after 1st cut (after-effect); for 2. Schnitt Pflanzenhöhe relativ: regrowth over 4 weeks after 1st cut; for 1. Schnitt Pflanzenhöhe cm: sprayed at 4 cm height. The source says: In einem Vegetationsversuch in Mitscherlichgefäßen wurde auf einem lehmigen Sandboden Rasen der folgenden Standard--Mischung angesät: Agrostis tenuis 10 %, Cynosurus cristatus 10 %, Festuca rubra 15 %, Lolium perenne 35 % und Poa pratensis 30 %. Die Düngung wurde mit 1,5 g N als Ammonnitrat und 1 ^g P205 als sec. Kaliumphosphat vorgenommen. Nach 2 vorangegangenen Schnitten wurden die Wirkstoffe in verschiedenen Aufwandmengen bei einer Wuchshöhe von 4 cm in üblicher Weise gespritzt. 20 Tage nach der Behandlung wurde die Wuchshöhe bestimmt; nach erfolgtem 1. Schnitt wurde der Wiederaufwuchs über 4 Wochen bis hin zum 2. Schnitt beobachtet und ebenfalls Längenmessungen durchgeführt, um die Nachwirkung zu überprüfen. Gegenüber der Kontrolle reagierten die Pflanzen aus den Behandlungsreihen mit sehr starken Kürzungen. Die Nachwirkung ist besser zu beurteilen als bei der zum Vergleich herangezogenen bekannten Substanz, wie nachstehende Tabelle zeigt.

The subject of the next test is Sommerweizen (Kolibri). Nature of the test: Growth height reduction in cereals, greenhouse, foliar spray (Beispiel A). The format is in vivo, Weizen (Kolibri). The settings on record: 18 days growth; for Pflanzenhöhe cm: sprayed at 10 cm plant height, 100 plants measured; for Pflanzenhöhe relativ: untreated control = 100. From the text:
(§1) Im Gewächshaus wurden die Getreidearten Weizen (Kolibri) und Gerste (Union) in Kunststoffschalen von 11,5 cm Durch- messer in Torfkultursubstrat, welches ausreichend mit Nährstoffen versorgt war, eingesät. Die Wirkstoffe wurden in unterschiedlichen Aufwandmengen über das Blatt zugeführt. Die Applikation erfolgte bei einer Wuchshöhe der Pflanzen von 10 cm in üblicher Weise durch Spritzen.
(§2) Während der Wachstumszeit von 18 Tagen zeigten die behandelten Pflanzen gegenüber der unbehandelten Kontrolle ein deutlich geringeres Längenwachstum, was durch die abschließenden Längenmessungen bestätigt werden konnte. Hierbei wurden von jeder Behandlungsreihe 100 Pflanzen gemessen.

The test system of another test is Sommergerste (Union). The test is described as above. In kind it is in vivo, Gerste (Union). The settings on record: for Pflanzenhöhe cm: sprayed at 10 cm plant height, 18 days growth; for Pflanzenhöhe relativ: untreated control = 100.
From the text: as §1, §2

Turning to `CC(=O)Nc1ccc(C)c(NS(=O)(=O)C(F)(F)F)c1` [Fluoridamid, 5-Acetam.ido-2-methyl-trifluormethansulfonsäureanilid, reference compound], in the test with Rasen (Aufwandmenge 0,5 kg/ha), the “1. Schnitt Pflanzenhöhe relativ” value was 94,4, the “2. Schnitt Pflanzenhöhe cm” value is reported as 11,0 cm, the “2. Schnitt Pflanzenhöhe relativ” value was determined as 100 and the “1. Schnitt Pflanzenhöhe cm” value is recorded as 13,5 cm. Moreover, in the test with Rasen (Aufwandmenge 0,75 kg/ha), the “1. Schnitt Pflanzenhöhe relativ” value was 87,4, the “2. Schnitt Pflanzenhöhe cm” value is reported as 10,0 cm, the “2. Schnitt Pflanzenhöhe relativ” value was 90,9 and the “1. Schnitt Pflanzenhöhe cm” value was 12,5 cm. In addition, in the test with Sommerweizen (Kolibri) (Aufwandmenge 1,5 kg/ha), the Pflanzenhöhe cm is 17,0 cm and the Pflanzenhöhe relativ is reported as 63,4. Also, in the test with Sommerweizen (Kolibri) (Aufwandmenge 6,0 kg/ha), the Pflanzenhöhe cm is reported as 15,0 cm and the Pflanzenhöhe relativ is 56,0.

For `CC(=O)Nc1cc(NS(=O)(=O)C(F)(F)F)c(C)cc1C` [Mefluidide, 5-Acetamido-2,4--dimethyl-trifluormethansulfonsäureanilid], the Pflanzenhöhe cm was 27,0 cm with Sommergerste (Union) (Aufwandmenge 0,25 kg/ha), 18,0 cm with Sommergerste (Union) (Aufwandmenge 0,75 kg/ha), 17,5 cm in the test on Sommergerste (Union) (Aufwandmenge 1,50 kg/ha) and 16,0 cm in the test with Sommergerste (Union) (Aufwandmenge 3,00 kg/ha). Also, the Pflanzenhöhe relativ is given as 96,4 with Sommergerste (Union) (Aufwandmenge 0,25 kg/ha), 64,3 in the test on Sommergerste (Union) (Aufwandmenge 0,75 kg/ha), 62,5 with Sommergerste (Union) (Aufwandmenge 1,50 kg/ha) and 57,1 in the test on Sommergerste (Union) (Aufwandmenge 3,00 kg/ha).

Take `CC(=O)Nc1cc(N(C#N)S(=O)(=O)C(F)(F)F)c(C)cc1C` [Beispiel 1, 5-Acetamido-N -cyano-2,4-dimethyl-trifluormethansulfonsäureanilid]: in the test on Rasen (Aufwandmenge 0,5 kg/ha), the “1. Schnitt Pflanzenhöhe relativ” value is listed as 38,5, the “2. Schnitt Pflanzenhöhe cm” value was 8,0 cm, the “2. Schnitt Pflanzenhöhe relativ” value is reported as 72,7 and the “1. Schnitt Pflanzenhöhe cm” value was 5,5 cm. In addition, in the test on Rasen (Aufwandmenge 0,75 kg/ha), the “1. Schnitt Pflanzenhöhe relativ” value was 31,5, the “2. Schnitt Pflanzenhöhe cm” value is given as 7,0 cm, the “2. Schnitt Pflanzenhöhe relativ” value is reported as 63,6 and the “1. Schnitt Pflanzenhöhe cm” value is on record as 4,5 cm. Besides, in the test on Sommerweizen (Kolibri) (Aufwandmenge 1,5 kg/ha), the Pflanzenhöhe cm is listed as 13,0 cm and the Pflanzenhöhe relativ is reported as 48,5. Besides, in the test on Sommerweizen (Kolibri) (Aufwandmenge 6,0 kg/ha), the Pflanzenhöhe cm is on record as 12,6 cm and the Pflanzenhöhe relativ is 46,6.

For the compound `CC(=O)Nc1ccc(C)c(N(C#N)S(=O)(=O)C(F)(F)F)c1` [Beispiel 67], in the test on Rasen (Aufwandmenge 0,5 kg/ha), the “1. Schnitt Pflanzenhöhe relativ” value is recorded as 97,4, the “2. Schnitt Pflanzenhöhe cm” value is given as 11,0 cm, the “2. Schnitt Pflanzenhöhe relativ” value is 100 and the “1. Schnitt Pflanzenhöhe cm” value was 14,0 cm. Also, in the test with Rasen (Aufwandmenge 0,75 kg/ha), the “1. Schnitt Pflanzenhöhe relativ” value is reported as 87,4, the “2. Schnitt Pflanzenhöhe cm” value is 9,0 cm, the “2. Schnitt Pflanzenhöhe relativ” value is given as 81,8 and the “1. Schnitt Pflanzenhöhe cm” value is 12,5 cm. Further, in the test on Sommerweizen (Kolibri) (Aufwandmenge 1,5 kg/ha), the Pflanzenhöhe cm is 13,5 cm and the Pflanzenhöhe relativ is 50,4. Moreover, in the test with Sommerweizen (Kolibri) (Aufwandmenge 6,0 kg/ha), the Pflanzenhöhe cm is reported as 12,0 cm and the Pflanzenhöhe relativ is recorded as 44,8.
